The experiment has as its system T-regulatory cells (FOXP3+ T-regs), TH17 cells. The experiment can be described thus: Circulating T-regulatory and TH17 cells in rats. Format: in vivo. The settings on record: rats, 4 days in drinking water.

The structures appear in SMILES notation.

Turning to `O=C([O-])CC(O)(CC(=O)[O-])C(=O)[O-].[Na+].[Na+].[Na+]` [Na Citrate], the “circulating anti-inflammatory T cells (FOXP3+ T-regs)” value is listed as “no effect”.

The values are drawn from patent publication US11324774B2, “Compositions of oral alkaline salts and metabolic acid inducers and uses thereof” (Augusta University Research Institute, Inc., priority 2018, dated 2022).
